Source: ChEMBL document CHEMBL5104090, “Recent advances in the medicinal chemistry of carbonic anhydrase inhibitors” (Eur J Med Chem, 2021)

Tests used:
Carbonic anhydrase 4 = Carbonic anhydrase 4 (Homo sapiens, UniProt P22748)
Carbonic anhydrase 9 [1] = biological target: T1, Carbonic anhydrase 9 (Homo sapiens, UniProt Q16790)
Ca9-22 = assay: cells; type: functional; settings: Homo sapiens, time 48 hrs
Description: Cytotoxicity against human Ca9-22 cells assessed as cell growth inhibition measured after 48 hrs by MTT assay

Carbonic anhydrase 1 [2] = biological target: T2, Carbonic anhydrase 1 (Homo sapiens, UniProt P00915)
T2 sequence (P00915 whole entry): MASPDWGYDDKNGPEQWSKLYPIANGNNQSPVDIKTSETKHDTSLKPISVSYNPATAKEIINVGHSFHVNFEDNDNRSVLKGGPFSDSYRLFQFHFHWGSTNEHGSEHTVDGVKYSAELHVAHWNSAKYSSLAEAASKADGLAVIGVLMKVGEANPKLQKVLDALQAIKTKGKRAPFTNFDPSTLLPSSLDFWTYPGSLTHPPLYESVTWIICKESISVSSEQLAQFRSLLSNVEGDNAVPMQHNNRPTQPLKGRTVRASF

Carbonic anhydrase 12 = Carbonic anhydrase 12 (Homo sapiens, UniProt O43570)
Chain of Carbonic anhydrase 12 (O43570 whole entry): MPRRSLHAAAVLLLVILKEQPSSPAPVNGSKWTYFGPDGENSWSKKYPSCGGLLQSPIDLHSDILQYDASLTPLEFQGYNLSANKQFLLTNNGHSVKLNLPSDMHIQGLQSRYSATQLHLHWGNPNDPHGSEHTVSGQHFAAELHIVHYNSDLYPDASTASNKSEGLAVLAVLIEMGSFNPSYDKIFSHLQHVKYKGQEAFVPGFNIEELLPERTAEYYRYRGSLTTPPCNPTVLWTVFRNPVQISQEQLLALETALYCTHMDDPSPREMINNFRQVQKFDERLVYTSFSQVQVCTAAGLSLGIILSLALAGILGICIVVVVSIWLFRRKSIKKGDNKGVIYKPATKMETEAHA

Carbonic anhydrase 2 = Carbonic anhydrase 2 (Homo sapiens, UniProt P00918)
Carbonic anhydrase 1 [3] = biological target: T2, Carbonic anhydrase 1; remark: listed apart in the source
Carbonic anhydrase 9 [4] = biological target: T1, Carbonic anhydrase 9; remark: listed apart in the source

Chain of Carbonic anhydrase 4 (P22748 whole entry): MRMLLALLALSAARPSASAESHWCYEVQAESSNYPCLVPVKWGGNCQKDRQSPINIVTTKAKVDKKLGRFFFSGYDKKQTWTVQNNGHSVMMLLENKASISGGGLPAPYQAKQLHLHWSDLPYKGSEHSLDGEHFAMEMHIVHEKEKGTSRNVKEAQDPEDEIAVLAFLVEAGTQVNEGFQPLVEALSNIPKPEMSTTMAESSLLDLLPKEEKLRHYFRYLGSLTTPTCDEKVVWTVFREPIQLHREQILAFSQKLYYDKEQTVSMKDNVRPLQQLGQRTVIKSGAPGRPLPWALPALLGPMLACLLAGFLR

Compound	Ki (Carbonic anhydrase 9 [1]) [nM]	Ki (Carbonic anhydrase 12) [nM]	also measured
COc1ccc(C(=O)/C=C/Nc2cccc(S(N)(=O)=O)c2)cc1	–	–	Ki (Carbonic anhydrase 4): 6.5 nM
COc1cc(C2CC(c3ccccc3)=NN2c2ccc(S(N)(=O)=O)cc2)cc(OC)c1OC (configuration not stated)	> 44	> 9	CC50 (Ca9-22): 6300 nM; Ki (Carbonic anhydrase 1 [2]): > 230 nM
COc1ccc(C2CC(c3ccccc3)=NN2c2ccc(S(N)(=O)=O)cc2)c(OC)c1OC (configuration not stated)	> 44	> 9	CC50 (Ca9-22): 6300 nM; Ki (Carbonic anhydrase 1 [2]): > 230 nM
O=S1(=O)CC=Cc2cc(-c3ccc(F)cc3)ccc2O1	–	–	Ki (Carbonic anhydrase 2): > 100000 nM; Ki (Carbonic anhydrase 1 [3]): > 100000 nM
COc1ccc(-c2ccc3c(c2)OS(=O)(=O)CC=C3)cc1	–	–	Ki (Carbonic anhydrase 2): > 100000 nM; Ki (Carbonic anhydrase 1 [3]): > 100000 nM
Cc1ccc(C(=O)/C=C/Nc2cccc(S(N)(=O)=O)c2)cc1	–	–	Ki (Carbonic anhydrase 4): 6.5 nM
C/C(=N\O)c1ccc(N2C(=O)c3cc(Cl)c(Cl)cc3C2=O)cc1	169	–	–
CC(C)(C)OC(=O)C[C@H](Cc1ccccc1)C(=O)CCC(=O)NCc1ccc(S(N)(=O)=O)cc1	1.8	–	–
NS(=O)(=O)c1ccc(CCn2c(SCc3ccc(F)cc3)nc3ccccc3c2=O)cc1	–	–	Ki (Carbonic anhydrase 9 [4]): 19.3 nM
O=S1(=O)CC=Cc2ccc(Br)cc2O1	–	–	Ki (Carbonic anhydrase 2): > 100000 nM; Ki (Carbonic anhydrase 1 [3]): > 100000 nM
CN1C(=O)/C(=N\c2ccc(S(N)(=O)=O)cc2)c2ccccc21	13.9	34.3	–
CCOC(=O)c1ccc(-c2ccc3c(c2)OS(=O)(=O)CC=C3)cc1	–	–	Ki (Carbonic anhydrase 2): > 100000 nM; Ki (Carbonic anhydrase 1 [3]): > 100000 nM
COc1cc(OC)c(C2CC(c3ccccc3)=NN2c2ccc(S(N)(=O)=O)cc2)cc1OC (configuration not stated)	> 44	> 9	CC50 (Ca9-22): 6300 nM; Ki (Carbonic anhydrase 1 [2]): > 230 nM
C/C(=N\O)c1ccc(N2C(=O)c3ccc(C(=O)O)cc3C2=O)cc1	169	–	–
NS(=O)(=O)c1cccc(N/C=C/C(=O)c2ccc3ccccc3c2)c1	–	–	Ki (Carbonic anhydrase 4): 6.5 nM
O=S1(=O)CC=Cc2cc(-c3ccccc3)ccc2O1	–	–	Ki (Carbonic anhydrase 2): > 100000 nM; Ki (Carbonic anhydrase 1 [3]): > 100000 nM
COc1cc(OC)c(C2CC(c3ccc(Br)cc3)=NN2c2ccc(S(N)(=O)=O)cc2)cc1OC (configuration not stated)	> 44	> 9	CC50 (Ca9-22): 6300 nM; Ki (Carbonic anhydrase 1 [2]): > 230 nM
C/C(=N\O)c1ccc(N2C(=O)C3C(C2=O)C2(Cl)C(Cl)=C(Cl)C3(Cl)C2(Cl)Cl)cc1 (configuration not stated)	169	–	–
NS(=O)(=O)c1ccc(/N=C2\C(=O)N(Cc3ccccc3)c3ccccc32)cc1	13.9	34.3	–
C=CCN1C(=O)/C(=N\NC(=O)CNc2ccc(S(N)(=O)=O)cc2)c2ccccc21	13.9	34.3	–

Compound	Ki (Carbonic anhydrase 9 [1]) [nM]	Ki (Carbonic anhydrase 12) [nM]	also measured
COc1ccc(C(=O)N2C(=O)/C(=N\NC(=O)CNc3ccc(S(N)(=O)=O)cc3)c3ccccc32)cc1	–	22.3	–
C=CCN1C(=O)/C(=N\Nc2ccc(S(N)(=O)=O)cc2)c2ccccc21	–	34.3	–
C/C(=N\O)c1ccc(N2C(=O)c3ccc(C(C)(C)C)cc3C2=O)cc1	169	–	–
O=S1(=O)C=Cc2cc(-n3nncc3-c3ccc(F)cc3)ccc2O1	6.9	–	–
C/C(=N\NC(=O)c1ccc(S(N)(=O)=O)cc1)c1ccc(N2C(=O)c3cc(Cl)c(Cl)cc3C2=O)cc1	169	–	–
O=S1(=O)CC=Cc2cc(I)ccc2O1	–	–	Ki (Carbonic anhydrase 2): > 100000 nM; Ki (Carbonic anhydrase 1 [3]): > 100000 nM
COc1ccc(C2CC(c3cccs3)=NN2c2ccc(S(N)(=O)=O)cc2)c(OC)c1OC (configuration not stated)	> 44	> 9	CC50 (Ca9-22): 6300 nM; Ki (Carbonic anhydrase 1 [2]): > 230 nM
C/C(=N\NC(=O)c1ccc(S(N)(=O)=O)cc1)c1ccc(N2C(=O)C3C(C2=O)C2(Cl)C(Cl)=C(Cl)C3(Cl)C2(Cl)Cl)cc1 (configuration not stated)	17.3	–	–
NS(=O)(=O)c1cccc(-c2nc(-c3cccnc3)no2)c1	1.2	–	–
C/C(=N\NC(=O)c1ccc(S(N)(=O)=O)cc1)c1ccc(N2C(=O)c3ccccc3C2=O)cc1	17.3	–	–
O=S1(=O)CC=Cc2cccc(-c3ccc(C(F)(F)F)cc3)c2O1	–	–	Ki (Carbonic anhydrase 2): > 100000 nM; Ki (Carbonic anhydrase 1 [3]): > 100000 nM
COc1ccc2nc(S/C(=N/Nc3ccc(S(N)(=O)=O)cc3)C(C)=O)n(-c3ccccc3)c(=O)c2c1	1.6	–	–
NS(=O)(=O)c1cccc(N/C=C/C(=O)c2ccc(Cl)cc2)c1	–	–	Ki (Carbonic anhydrase 4): 6.5 nM
NS(=O)(=O)c1ccc(NCC(=O)N/N=C2\C(=O)Nc3ccccc32)cc1	–	34.3	–
COc1cc(OC)c(C2CC(c3ccc(F)cc3)=NN2c2ccc(S(N)(=O)=O)cc2)cc1OC (configuration not stated)	> 44	> 9	CC50 (Ca9-22): 6300 nM; Ki (Carbonic anhydrase 1 [2]): > 230 nM
C/C(=N\O)c1ccc(N2C(=O)c3ccc(C)cc3C2=O)cc1	169	–	–
COc1ccc(-c2ccc3c(c2)C=CCS(=O)(=O)O3)cc1	–	–	Ki (Carbonic anhydrase 2): > 100000 nM; Ki (Carbonic anhydrase 1 [3]): > 100000 nM
NS(=O)(=O)c1ccc(N/C=C/C(=O)c2ccccc2)cc1	–	–	Ki (Carbonic anhydrase 9 [4]): 0.21 nM
C/C(=N\NC(=O)c1ccc(S(N)(=O)=O)cc1)c1ccc(N2C(=O)c3ccc(C(C)(C)C)cc3C2=O)cc1	83.8	–	–
COc1cc(OC)c(C2CC(c3ccc(C(F)(F)F)cc3)=NN2c2ccc(S(N)(=O)=O)cc2)cc1OC (configuration not stated)	> 44	> 9	CC50 (Ca9-22): 6300 nM; Ki (Carbonic anhydrase 1 [2]): > 230 nM
